{
  "source": "patent US12366579B2",
  "about": "“Sulfur-heterocycle exchange chemistry and uses thereof” (University of Virginia Patent Foundation, priority 2019, dated 2025)",
  "key": {"[1]": {"biological_target": "T1, human fumarylacetoacetase (FAAA) (Homo sapiens, UniProt P16930)", "T1 construct": "made in house; host or cells: HEK293T, soluble proteome", "test": "Chemical proteomics analysis and gel-based screen of human FAAA with HHS SuTEx ligands", "type": "binding", "method": "FIGS. 44A-44C. Modification of human fumarylacetoacetase (FAAA) with HHS SuTEx ligands. FIG. 44A is a series of graphs showing the chemical proteomics analysis of human FAAA using an HHS SuTEx ligand, HHS0401 (25 μM) shown in FIG. 43. HHS0401 modifies the tyrosine at residue 244. FIG. 44B is an image of a gel-based chemical proteomic screen for human FAAA fragment ligands. Recombinant hFAAA-HEK293T soluble proteomes pretreated with indicated fragment (25 μM, 120 min) followed by labeling with HHS-475 (100 μM, 120 min).\n(§1) In addition, SuTEx fragment EKT231 (see FIG. 46A) modifies EDC3 at tyrosine 475."}, "[2]": {"biological_target": "human prostaglandin reductase 2 (PTGR2) (Homo sapiens, UniProt Q8N8N7)", "sequence (Q8N8N7 whole entry)": "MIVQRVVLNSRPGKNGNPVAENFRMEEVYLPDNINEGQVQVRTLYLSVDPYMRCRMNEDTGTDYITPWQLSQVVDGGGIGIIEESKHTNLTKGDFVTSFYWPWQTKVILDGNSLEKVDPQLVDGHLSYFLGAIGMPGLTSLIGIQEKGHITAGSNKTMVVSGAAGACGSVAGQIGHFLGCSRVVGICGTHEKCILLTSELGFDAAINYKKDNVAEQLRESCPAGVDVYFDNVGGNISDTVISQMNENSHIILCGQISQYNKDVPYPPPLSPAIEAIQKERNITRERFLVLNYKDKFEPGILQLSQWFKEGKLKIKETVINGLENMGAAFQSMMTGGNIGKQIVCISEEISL", "test": "Chemical proteomics analysis and gel-based screen of human PTGR2 with HHS SuTEx ligands", "type": "binding", "from_the_text": "FIGS. 45A and 45B: Modification of human prostaglandin reductase 2 (PTGR2) with HHS SuTEx ligands. HHS0701 modifies the tyrosine at residue 100.\nas §1"}, "DM93 and HEK293T cells": {"system": "DM93 and HEK293T cells", "test": "Proteome-wide profiling of sulfonyl imidazole analogs in live cells", "type": "cell-based, human", "conditions": "100 μM, 2 hours, 37° C.", "method": "A chemical proteomic treatment and analysis protocol was established to evaluate the structural-induced effect on the proteomic coverage of the sulfonyl imidazole analogs. […] Duke Melanoma 93 (DM93) and human embryonic kidney 293T (HEK293T) cells were treated with the probes (100 μM, 2 hours, 37° C.). The cells were harvested, washed and fractionated to expose the proteome. The cytosolic proteome subsequently underwent copper-catalyzed azide-alkyne cycloaddition (CuAAC) with a dethiobiotin PEG-3 azide tag. The tagged proteomes were digested with trypsin lys-C protease mixture, enriched by avidin affinity chromatography, eluted and analyzed by chromatography-tandem high-resolution mass spectrometry (LC-MS). The bioinformatic match of probe modified peptides was filtered with data confidence control criteria of ≥300 Byonic score, ≥3 log probability and ≤5 ppm mass accuracy (amino acid residue modifications of Y, K, N, Q, and W were processed at this point)."}, "DM93 soluble proteomes": {"system": "DM93 soluble proteomes", "test": "Proteome-wide competitive chemical proteomics of SuTEx fragments vs HHS-482", "type": "binding, human", "conditions": "fragment 50 μM, 30 min, 37° C.", "method": "Heavy and light proteomes (432 μl of each) were diluted to 2.3 mg ml^−1 in PBS and sample aliquots (432 μl) were treated with SuTEx fragment at the indicated concentrations (5 μl, 100× stock in DMSO), mixed gently and incubated for 30 min at 37° C. Samples were then treated with HHS-482 (5 μL, 5 mM stock in DMSO) for 30 min at 37° C. Probe-modified proteomes were conjugated to desthiobiotin-PEG3-azide followed by enrichment of probe-modified peptides for nano-electrospray ionization-LC-MS/MS analyses as previously described^57.\nThe chemical proteomic method for functional tyrosine profiling^72 was tailored to investigate AG/LG effects on SuTEx fragment reactivity in complex proteomes. In brief, isotopically light and heavy soluble proteomes from DM93 melanoma cells cultured by stable isotopic labeling by amino acids in cell culture (SILAC^80) media were used for quantitative liquid chromatography-mass spectrometry (LC-MS) studies. Light and heavy DM93 proteomes were treated with dimethyl sulfoxide (DMSO) vehicle or SuTEx fragment (50 μM, 30 min, 37° C.), respectively, followed by labeling with the tyrosine-reactive probe HHS-482 described hereinabove (50 μM, 30 min, 37° C.) and copper-catalyzed azide-alkyne cycloaddition (CuAAC) conjugation of a desthiobiotin-azide enrichment tag. Proteomes were digested with trypsin protease, HHS-482-modified peptides enriched by avidin chromatography and analyzed by high-resolution LC-MS/MS and bioinformatics as described hereinabove.\nTo evaluate substituent effects on proteome activity, reactivity profiles of each respective SuTEx fragment were compared across >1500 total distinct HHS-482-modified tyrosine sites from >650 detected proteins. Fragments were screened across independent biological replicates (n=2-3) and high-quality tyrosine site annotations were identified by detection in at least a single biological replicate from each fragment dataset, probe-specific enrichment (HHS-482 probe/DMSO SILAC ratio (SR)>5), and quality control confidence criteria of ≥300 Byonic score^31, […] protein false discovery rate (FDR), and ≤5 ppm mass accuracy in order to minimize the potential for false positives^72. SILAC ratios (SR) from competitive studies (Light-DMSO/Heavy-fragment) were used to identify fragment-competed tyrosine residues as sites showing >75% reduction in enrichment by HHS-482 compared with DMSO vehicle control (i.e. liganded tyrosines, SR>4). In total, 305 liganded tyrosines on 213 distinct proteins were identified, corresponding to ˜30% and ˜44% of total quantified tyrosines and proteins, respectively. […]"}, "purified DPP3": {"biological_target": "T2, purified DPP3 (Homo sapiens, UniProt Q9NY33)", "T2 sequence (Q9NY33 1-737)": "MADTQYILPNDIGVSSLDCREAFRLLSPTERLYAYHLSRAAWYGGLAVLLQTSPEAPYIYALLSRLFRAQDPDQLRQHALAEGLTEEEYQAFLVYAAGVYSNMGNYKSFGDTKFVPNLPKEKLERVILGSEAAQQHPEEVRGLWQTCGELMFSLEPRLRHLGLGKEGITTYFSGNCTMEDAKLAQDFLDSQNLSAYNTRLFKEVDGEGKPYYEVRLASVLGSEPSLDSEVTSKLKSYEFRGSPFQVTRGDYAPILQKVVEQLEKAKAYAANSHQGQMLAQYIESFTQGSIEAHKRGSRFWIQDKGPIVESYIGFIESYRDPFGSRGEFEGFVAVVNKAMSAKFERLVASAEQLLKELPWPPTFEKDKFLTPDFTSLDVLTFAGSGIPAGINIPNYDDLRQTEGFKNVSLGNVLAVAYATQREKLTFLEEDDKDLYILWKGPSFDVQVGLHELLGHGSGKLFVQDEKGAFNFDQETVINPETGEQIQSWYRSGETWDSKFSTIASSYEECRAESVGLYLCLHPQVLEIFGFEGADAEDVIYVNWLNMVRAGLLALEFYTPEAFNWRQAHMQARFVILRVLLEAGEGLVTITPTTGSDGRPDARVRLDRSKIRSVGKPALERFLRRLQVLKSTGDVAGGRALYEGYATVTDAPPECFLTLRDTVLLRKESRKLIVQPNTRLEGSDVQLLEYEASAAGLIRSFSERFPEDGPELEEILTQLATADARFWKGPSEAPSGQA", "test": "DPP3 biochemical substrate assay (Arg-Arg β-naphthylamide peptidase assay)", "conditions": "negative control with cyclopropyl-modified AG", "method": "DPP3 Biochemical Substrate Assay\nSubstrate assays were performed using purified DPP3 protein diluted to 5 ng/μL in assay buffer. DPP3 samples (10 μl) were diluted to 85 μl with assay buffer and transferred to a black 96-well plate. Samples were treated with a 50× stock of SuTEx-fragment at indication concentration for 30 min at 37° C. A stock solution of DPP3 substrate (Arg-Arg β-naphthylamide trihydrochloride, 0.5 mM: Sigma-Aldrich. St, Louis, Missouri, United States of America) was diluted to 100 μM in assay buffer. Substrate solution (5 μl) was added to each sample. Samples were mixed briefly by shaking and reaction monitored in kinetic mode by measuring fluorescence at 450 nm for 10 min on a BMG Labtech CLARIOstar plate reader (BMG Labtech, Cary, North Carolina, United States of America)."}, "[3]": {"biological_target": "T3, recombinant GSTP1 lysates (Homo sapiens, UniProt P09211)", "T3 construct": "FLAG (C); host or cells: HEK293T, transient transfection; soluble proteome used unpurified", "test": "GSTP1 biochemical substrate assay (GSH conjugation to BDNB)", "conditions": "negative control probes; highest concentration tested 100 μM", "method": "GSTP1 Biochemical Substrate Assay\nRecombinant GSTP1-HEK293T soluble cell proteomes were diluted to 1 mg ml^−1 in assay buffer (100 mM NaH2PO4, pH 7.0). Samples were treated with inhibitor at indicated concentrations for 30 min at 37° C. GSH stock solution (250 mM in water) was diluted to 4 mM in assay buffer and 25 μl of diluted GSH solution was added to each sample. A substrate stock solution of 75 mM 1-bromo-2,4-dinitrobenzene […] in ethanol was diluted to 2 mM in assay buffer. Samples (25 μl) were aliquoted into a 96-well plate and spun briefly via centrifuge. Next, 50 μl of 2 mM BDNB was added to each well and the reaction was monitored in kinetic mode by measuring absorbance at 340 nm for 10 min on a BMG Labtech CLARIOstar plate reader (BMG Labtech, Cary, North Carolina, United States of America)."}, "A549 cells": {"system": "A549 cells", "test": "Chemical phosphoproteomics of pervanadate-activated cells by SuTEx probe labeling (SILAC)", "type": "cell-based, human", "conditions": "pervanadate 100 μM, 30 min, HHS-475 100 μM", "method": "Pervanadate (100 mM) was prepared as previously described^41 by mixing 100 μL of sodium orthovanadate (100 mM Na3VO4, New England BioLabs #P0758S, Ipswich, Massachusetts, United States of America) with 1 μL of hydrogen peroxide (H2O2, 30% v/v in water) on ice. […] After pervanadate treatment, cells were washed twice with cold PBS followed by harvest. Cell pellets were resuspended in PBS supplemented with protease and phosphatase inhibitor mini tablets (Thermo Scientific #A32959; ThermoFisher Scientific, Waltham, Massachusetts, United States of America) and then lysed by sonication (3×1 sec pulse, 20% amplitude). For CTNND1 western blot studies, cell pellets were lysed in NP40 Cell Lysis Buffer (#FNN0021, Invitrogen, Carlsbad, California, United States of America) supplemented with protease/phosphatase inhibitor tablets. Cell lysates were separated via centrifugation at 100,000×g for 45 min at 4° C. for western blot or chemical proteomic studies. Note: pervanadate treatments are performed on live cells but SuTEx probe labeling occurs in proteomes in vitro.\nProteomes from cells treated with pervanadate activation conditions (100 μM, 30 min) were labeled with HHS-475 or HHS-482 (100 μM, 30 min) followed by CuAAC with desthiobiotin and quantitative LC-MS to evaluate how phosphorylation status affected SuTEx probe labeling. […] In total ˜2,200 probe-modified tyrosine sites were detected across ˜1,000 proteins using both HHS-475 and HHS-482 that were further separated into pervanadate-sensitive (PerS, SR≥2) and -insensitive groups (PerI, SR<2). The probe-modified tyrosines found in the PerS group appeared to be enriched for annotated phosphotyrosine sites (HTP≥10 in PhosphoSitePlus, see FIGS. 6C and 18) and represented only a small fraction of all unique HHS-475- and HHS-482-modified tyrosines detected by chemical proteomics (˜3%, 67 sites). […]"}},
  "note": "“Also recorded” adds a separate entry of the source.",
  "data": [
    {"molecule": "O=C(NCc1ccccc1)c1ccc(S(=O)(=O)n2cnnc2)cc1", "note": "[HHS0401]", "values": [
      {"measurement": "inhibition of FAAA, gel-based chemical proteomic analysis", "setting": "[1]; FIG. 44C", "value": "dose-dependent inhibition"},
      {"measurement": "tyrosine residue of FAAA modified", "setting": "[1]; ligand 25 μM", "value": 244}
    ]},
    {"molecule": "O=C(c1ccc(S(=O)(=O)n2cnnc2)cc1)N1CCC(c2ccccc2)CC1", "note": "[HHS0701]", "values": [
      {"measurement": "inhibition of PTGR2, gel-based chemical proteomic screen", "setting": "[2]; FIG. 45B", "value": "dose-dependent inhibition"},
      {"measurement": "tyrosine residue of PTGR2 modified", "setting": "[2]; ligand 25 μM", "value": 100}
    ]},
    {"molecule": "C#CCNC(=O)c1ccc(S(=O)(=O)n2ccnc2)cc1", "note": "[HHS-Im-01, 4-((1H-imidazol-1-yl)sulfonyl)-N-(prop-2-yn-1-yl)benzamide]", "values": [
      {"measurement": "Y/K specificity", "setting": "DM93 and HEK293T cells", "value": 0.77},
      {"measurement": "overall reactivity towards tyrosine and lysine residues (number of sites)", "setting": "DM93 and HEK293T cells", "value": 329}
    ]},
    {"molecule": "COc1ccc(-c2ncn(S(=O)(=O)C3CC3)n2)cc1", "note": "[JWB131, 1-(Cyclopropylsulfonyl)-3-(4-methoxyphenyl)-1H-1,2,4-triazole]", "values": [
      {"measurement": "reactivity against the proteome", "setting": "DM93 soluble proteomes", "value": "largely unreactive"},
      {"measurement": "activity against DPP3 in substrate assay", "setting": "purified DPP3", "value": "inactive"}
    ]},
    {"molecule": "O=S(=O)(C1CC1)n1cnc(-c2ccncc2)n1", "note": "[JWB191, 4-(1-(Cyclopropylsulfonyl)-1H-1,2,4-triazol-3-yl)pyridine]", "values": [
      {"measurement": "inhibitory activity against GSTP1", "setting": "[3]", "value": "lack of activity; also recorded: did not show inhibitory activity"}
    ]},
    {"molecule": "C#CCNC(=O)c1ccc(S(=O)(=O)n2cnc(C(F)(F)F)c2)cc1", "note": "[KY-Im-TFM, N-(prop-2-yn-1-yl)-4-((4-(trifluoromethyl)-1H-imidazol-1-yl)sulfonyl)benzamide]", "values": [
      {"measurement": "Y/K specificity", "setting": "DM93 and HEK293T cells", "value": 3.58},
      {"measurement": "overall reactivity towards tyrosine and lysine residues (number of sites)", "setting": "DM93 and HEK293T cells", "value": 338}
    ]},
    {"molecule": "pervanadate", "values": [
      {"measurement": "SILAC ratio (SR, light PBS/heavy pervanadate) of SuTEx probe labeling at CTNND1 Y228", "setting": "A549 cells", "value": 3.3},
      {"measurement": "SILAC ratio (SR, light PBS/heavy pervanadate) of SuTEx probe labeling at PKM Y105", "setting": "A549 cells", "value": 1.1},
      {"measurement": "SILAC ratio (SR, light PBS/heavy pervanadate) of SuTEx probe labeling at STAT3 Y705", "setting": "A549 cells", "value": 2.3}
    ]}
  ]
}
